In patent US20220064736A1, “UROTHELIAL CANCER AND METHODS OF DETECTION AND TARGETED THERAPY” (THE JOHNS HOPKINS UNIVERSITY, priority 2015, published 2022):
Each block holds one molecule with its values, some of them ahead of it.

How the values were obtained:
GULP1 transcript = assay: 5-Aza-dC treatment of UC cell lines, GULP1 expression by RT-PCR; type: cell-based, human
Procedure: Twenty four hours before treatment, cells were plated at low density (1-3×10^6 cells, dependent on growth characteristics of the respective cell line) in T75 cm^2 Tissue Culture Flasks (BD Biosciences, Bedford, Mass., USA). Stock solutions of 100 mM 5-Aza-dC (Sigma-Aldrich, St. Louis, Mo.) and 5 mM Trichostatin A (TSA) (Sigma-Aldrich) were prepared with DMSO (Sigma-Aldrich). Immediately before addition to the cell culture medium, appropriate aliquots of the stock solutions were dissolved in PBS (pH 7.5). Cells were treated with 5 μM 5-Aza-dC for 3 to 5 days. Medium with 5-Aza-dC was changed daily. Additionally, combination treatment with 5-Aza-dC and TSA was performed by adding 5 μM of 5-Aza-dC daily for 5 days and TSA (300 nmol/L) was added to the medium for the final 24 hours. Cells were harvested 24 hours after the last day of treatment (5-Aza-dC only and 5-Aza-dC+TSA) for RNA extraction and the analysis of gene expression by Reverse Transcriptase-PCR (RT-PCR).
Total RNA (500 ng) from cell lines and from bladder tissue were reverse-transcribed with qScript cDNA SuperMix™ (Quanta BioSciences) kit. The primers were designed by using Primer3 software. Actin type B (ACTB) was used as a loading control. […] Expression of the gene of interest was quantified by 2^−ΔΔCT method.

[1] = test system: T24 shGULP1 cells versus T24 shScramble cells; assay: MTT viability assay upon treatment with serial dilution of cisplatin; type: cell-based, human; details: T24 shGULP1 vs T24 shScramble, different concentrations of CDDP
[2] = test system: muscle-invasive bladder cancer (MIUC); details: patients with MIUC, neo-adjuvant chemotherapy preceding radical surgery; cited from earlier work
[3] = test system: GULP1 localization in T24 cells; assay: Confocal imaging of GULP1 subcellular localization upon blocking nuclear export; type: cell-based, human; details: treatment for 5 hours
Procedure: To this end, the subcellular localization of GULP1 was determined by confocal microscopy analysis and nuclear-cytoplasm fractionation experiments using T24 cell line. The findings indicate that GULP1 localized in both nucleus and cytoplasm (FIG. 3d, upper and lower panel, and FIG. 8a). Ubiquitous localization pattern of GULP1 was further confirmed by performing immunofluorescence and confocal microscopy analysis by using two different antibodies against GULP1 and upon blocking nuclear export machinery by Leptomycin B (LMB) treatment for 5 hours (T24 cells in FIG. 3d and FIG. 8b).
Cells were grown on glass coverslips for 72 hs. After fixation in 4% paraformaldehyde, they were incubated in PBS 0.2% Glycine, permeabilized with PBS 10% Triton X100 for 10 minutes and incubated in Blocking buffer (PBS 3% BSA, 10% goat serum, 0.02% Tween) for 2-3 hours at r.t.
Incubation with the indicated primary antibodies (see Table 5) has been performed at 4° C. in the dark. After 5 washing with PBS 0.02% Tween, coverslips have been incubated with the indicated secondary antibodies (Table 5) for 1 h at r.t. For the case actin cytoskeleton analysis, after fixation, the coverslips have been incubated 90 minutes with Alexa Fluor® 488 Phalloidin (Life Technologies, 1:1000 in PBS). […] Slides were examined and photographed using a fluorescence microscope.

[4] = biological target: T1, Nuclear factor E2-related factor 2 (Nrf2) (UniProt Q16236 1-605, limits assumed); assay: co-immunoprecipitation of endogenous GULP1 from whole-cell lysates (BFTC905, BFTC909, HUC1, T24), western blot
T1 construct: Endogenous protein from lysates of human cell lines; also called NFE2L2; NF2EL2
T1 sequence (looked up): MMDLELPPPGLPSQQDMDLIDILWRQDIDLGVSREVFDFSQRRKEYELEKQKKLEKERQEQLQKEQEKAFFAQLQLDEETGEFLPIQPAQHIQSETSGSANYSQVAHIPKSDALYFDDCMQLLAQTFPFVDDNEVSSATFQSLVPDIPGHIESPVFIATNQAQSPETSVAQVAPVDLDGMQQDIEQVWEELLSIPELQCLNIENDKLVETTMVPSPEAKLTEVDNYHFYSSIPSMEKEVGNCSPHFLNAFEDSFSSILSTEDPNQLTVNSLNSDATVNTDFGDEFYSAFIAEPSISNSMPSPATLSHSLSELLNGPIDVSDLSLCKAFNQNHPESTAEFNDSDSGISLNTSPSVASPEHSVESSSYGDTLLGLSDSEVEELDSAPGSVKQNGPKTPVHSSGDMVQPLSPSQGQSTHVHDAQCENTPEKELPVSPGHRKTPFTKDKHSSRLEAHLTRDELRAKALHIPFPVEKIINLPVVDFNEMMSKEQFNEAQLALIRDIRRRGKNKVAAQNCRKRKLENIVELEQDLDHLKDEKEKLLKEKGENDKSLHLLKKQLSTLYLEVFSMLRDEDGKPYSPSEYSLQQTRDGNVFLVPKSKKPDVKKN
From the text: (§1) a. […] Confocal imaging analysis of T24 cells. […] A not related protein antibody was used as a negative control for IP and 10% of whole cell lysate was used as input. d.

[5] = biological target: T2, BTB and CNC homology 1 (Bach1) (UniProt O14867 1-736); assay: as above
T2 construct: Endogenous protein from lysates of human cell lines
T2 sequence (looked up): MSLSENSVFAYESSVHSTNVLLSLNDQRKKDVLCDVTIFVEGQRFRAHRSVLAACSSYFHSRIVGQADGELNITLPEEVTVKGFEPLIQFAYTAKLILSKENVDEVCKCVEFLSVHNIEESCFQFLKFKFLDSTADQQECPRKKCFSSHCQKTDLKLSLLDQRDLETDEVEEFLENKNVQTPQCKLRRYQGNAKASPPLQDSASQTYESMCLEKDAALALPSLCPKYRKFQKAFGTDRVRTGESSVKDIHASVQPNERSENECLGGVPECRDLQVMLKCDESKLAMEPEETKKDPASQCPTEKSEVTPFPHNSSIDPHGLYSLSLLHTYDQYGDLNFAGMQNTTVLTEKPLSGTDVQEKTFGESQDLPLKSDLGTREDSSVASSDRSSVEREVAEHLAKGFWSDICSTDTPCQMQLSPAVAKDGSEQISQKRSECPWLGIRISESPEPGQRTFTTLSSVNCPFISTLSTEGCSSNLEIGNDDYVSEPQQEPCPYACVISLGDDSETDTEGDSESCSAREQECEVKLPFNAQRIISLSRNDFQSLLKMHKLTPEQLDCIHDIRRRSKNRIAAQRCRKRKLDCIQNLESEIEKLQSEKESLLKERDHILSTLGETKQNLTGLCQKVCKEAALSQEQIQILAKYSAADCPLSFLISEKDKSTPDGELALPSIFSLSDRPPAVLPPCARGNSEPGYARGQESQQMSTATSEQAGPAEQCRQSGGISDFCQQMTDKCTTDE
From the text: as §1

Molecule: Nc1ncn([C@H]2C[C@H](O)[C@@H](CO)O2)c(=O)n1 [5-aza-dC, 5-Aza-2′-deoxycytidine]
GULP1 transcript level (GULP1 transcript; HT-1376 and SW780 UC cells, 5-azadC with or without trichostatin A (TSA), consistent with promoter demethylation): several fold increase in GULP1 transcript
GULP1 reactivation (GULP1 transcript; UC cell lines): reactivation of GULP1 was observed

Molecule: [NH2][Pt]([NH2])([Cl])[Cl] [CDDP, Cisplatin]
Cell viability of GULP1 knock-down cells compared with control cells [1]: significantly higher viability than the control cells
overall long-term survival benefit [2]: 6%

Molecule: CCC(=C/[C@H](C)C/C=C/C(C)=C/[C@@H](C)C(=O)[C@@H](C)[C@H](O)[C@@H](C)C/C(C)=C/C(=O)O)/C=C/[C@@H]1OC(=O)C=C[C@@H]1C [Leptomycin B]
GULP1 nuclear export [3]: prevent GULP1 from going out from nucleus

binding result [4]: no binding
binding result [5]: no binding
B1: PTB Domain-Containing Engulfment Adaptor Protein1 (GULP1) (other, human, UniProt Q9UBP9 1-304, looked up)
chain: MNRAFSRKKDKTWMHTPEALSKHFIPYNAKFLGSTEVEQPKGTEVVRDAVRKLKFARHIKKSEGQKIPKVELQISIYGVKILEPKTKEVQHNCQLHRISFCADDKTDKRIFTFICKDSESNKHLCYVFDSEKCAEEITLTIGQAFDLAYRKFLESGGKDVETRKQIAGLQKRIQDLETENMELKNKVQDLENQLRITQVSAPPAGSMTPKSPSTDIFDMIPFSPISHQSSMPTRNGTQPPPVPSRSTEIKRDLFGAEPFDPFNCGAADFPPDIQSKLDEMQEGFKMGLTLEGTVFCLDPLDSRC
notes: Endogenous protein from cell lysates; also called engulfment adaptor PTB domain containing 1; human homologue of CED-6
